Experimental data published in patent publication US20180111913A1, “SUBSTITUTED BENZOFURAN DERIVATIVES AS NOVEL ANTIMYCOBACTERIAL AGENTS” (priority 2015, published 2018).
Values after ≈ are worked out from the molar mass of the structure shown. Read-outs that look alike come from different tables or passages of the source.

Assays:
[1] = test system: Mtb strain mc^27000; assay: microbe, parasite or virus in culture; assay type: cell-based, Mycobacterium tuberculosis; details: for inhibition at 20 µM / inhibition at 40 µM: read-out: percentage inhibition observed (incomplete inhibition)
[2] = target: Mtb Pks13-TE domain (wild-type) (Mycobacterium tuberculosis, UniProt I6X8D2); assay: biochemical; assay type: biochemical
Chain of Mtb Pks13-TE domain (wild-type) (I6X8D2 1451-1733): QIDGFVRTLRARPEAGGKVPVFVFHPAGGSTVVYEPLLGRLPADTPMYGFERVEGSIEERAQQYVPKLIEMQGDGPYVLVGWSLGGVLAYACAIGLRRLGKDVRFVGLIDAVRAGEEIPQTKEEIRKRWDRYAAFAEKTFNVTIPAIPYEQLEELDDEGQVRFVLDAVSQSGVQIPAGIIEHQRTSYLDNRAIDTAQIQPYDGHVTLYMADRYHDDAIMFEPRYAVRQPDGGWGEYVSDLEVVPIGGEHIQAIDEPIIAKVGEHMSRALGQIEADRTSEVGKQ

[3] = Pks13-TE, 20 μM 4-MUH, read-out: IC50
[4] = Mycobacterium tuberculosis, Mtb mc^27000, liquid medium, 96-well plates, read-out: MIC
[5] = Mtb mc^27000, liquid medium, 96-well plates, read-out: MIC

Structure (SMILES): CNC(=O)c1c(-c2ccccc2)oc2cc(OCC(N)=O)cc(CN3CCCCC3)c12 [compound 90]
- inhibition at 20 µM ([1]; Mycobacterium tuberculosis): 13%
- inhibition at 40 µM ([2]; at 40 μM, read-out: percentage inhibition observed (IC50 column, incomplete inhibition)): 31%

Structure (SMILES): CNC(=O)c1c(-c2ccccc2)oc2cc(OCCN)cc(CN3CCCCC3)c12 [compound 91]
- inhibition at 40 µM ([1]; Mycobacterium tuberculosis): 34%
- IC50 [2, 3]: 10 µM

Structure (SMILES): CNC(=O)c1c(-c2ccccc2)oc2cc(OCC(=O)OC)cc(CN3CCCCC3)c12 [compound 93]
- inhibition at 40 µM ([1]; Mycobacterium tuberculosis): 16%
- IC50 [2, 3]: 10 µM

Structure (SMILES): CCOC(=O)c1c(-c2ccccc2)oc2ccc(O)c(CN3CCC(N4CCCCC4)CC3)c12 [compound 98]
- inhibition at 20 µM ([1]; Mycobacterium tuberculosis): 40%
- IC50 [2, 3]: > 20 µM

Structure (SMILES): OCc1c(-c2ccccc2)oc2ccc(O)c(CN3CCC(N4CCCCC4)CC3)c12 [compound 99]
- inhibition at 20 µM ([1]; Mycobacterium tuberculosis): 28%
- IC50 ([2]; Pks13-TE, read-out: IC50 (μM), given as NB / NI): > 20 µM

Structure (SMILES): O=S(=O)(Nc1ccc2oc(-c3ccccc3)cc2c1CN1CCC(N2CCCCC2)CC1)C(F)(F)F [compound 100]
- inhibition at 20 µM ([1]; Mycobacterium tuberculosis): 6%
- IC50 [2, 3]: > 40 µM

Structure (SMILES): COC(=O)c1c(-c2ccccc2)oc2ccc(O)c(CCCN3CCCC3)c12 [compound 104]
- MIC [1, 4]: 1.8 µM (≈ 0.683 µg/mL)
- IC50 [2, 3]: 2 µM

Structure (SMILES): CNC(=O)c1c(-c2ccccc2)oc2ccc(O)c(CCCN3CCCC3)c12 [compound 105]
- MIC [1, 4]: 5 µM (≈ 1.89 µg/mL)
- IC50 [2, 3]: 5 µM

Structure (SMILES): COC(=O)n1c(-c2ccccc2)c(Br)c2cccc(CN3CCCCC3)c21 [compound 108]
- inhibition at 20 µM ([1]; Mycobacterium tuberculosis): 26%
- IC50 [2, 3]: 2 µM

Structure (SMILES): CCOC(=O)c1c(-c2ccccc2)oc2ccc(O)c(CN(C)C)c12 [compound 109]
- higher MIC compared to the test compound [1]: 3 fold
- MIC ([1]; Mtb mc^27000, liquid medium, 96-well plates): 7.3 ± 0.3 µM (≈ 2.48 µg/mL)
- MIC ([1]; […], mean ± s.d. of triplicates, NI: no inhibition): 7.3 ± 0.3 µM (≈ 2.48 µg/mL)
- IC50 ([2]; Mtb Pks13-TE domain, mean ± s.d. of triplicates, read-out: IC50): 1.57 ± 0.15 µM
- IC50 [2, 3]: 1.57 ± 0.15 µM
- loss of inhibitory activity / higher IC50 against Pks13-TE compared to the test compound ([2]; relative to test compound): > 6 fold

Structure (SMILES): Oc1ccc2nc(-c3ccccc3)[nH]c2c1CN1CCCC1 [compound 110]
- MIC [1, 4]: 22 µM (≈ 6.45 µg/mL)
- IC50 [2, 3]: 6.8 µM

Structure (SMILES): CNC(=O)c1c(-c2cccnc2)oc2ccc(OC)c(CN3CCCCC3)c12 [compound 112]
- MIC [1, 4]: > 40 µM
- IC50 [2, 3]: 35.8 µM

Structure (SMILES): CCOC(=O)c1c(-c2ccccc2)oc2ccc(O)c(CN3CCC(O)CC3)c12 [compound 117]
- MIC [1, 4]: 5.6 µM (≈ 2.21 µg/mL)
- IC50 [2, 3]: 0.18 µM

Structure (SMILES): CNC(=O)c1c(-c2ccc(O)cc2)oc2ccc(O)c(CN3CCC(O)CC3)c12 [compound 120]
- MIC [1, 4]: 4.2 µM (≈ 1.67 µg/mL)
- IC50 [2, 3]: 0.5 µM

Structure (SMILES): CNC(=O)c1c(-c2ccc(O)cc2)oc2ccc(O)c(CN3CCC(CO)CC3)c12 [compound 121]
- MIC [1, 4]: 40 µM (≈ 16.4 µg/mL)
- IC50 [2, 3]: 0.6 µM

Structure (SMILES): CNC(=O)c1c(-c2ccc(O)cc2)oc2ccc(O)c(CN3CCC(CO)C3)c12 (stereo not shown) [compound 122]
- MIC [1, 4]: 1 µM (≈ 0.396 µg/mL)
- IC50 [2, 3]: 0.51 µM

Structure (SMILES): CNC(=O)c1c(-c2ccc(O)cc2)oc2ccc(O)c(CN3CCC(C(N)=O)CC3)c12 [compound 123]
- MIC [1, 4]: > 40 µM
- IC50 [2, 3]: 1.6 µM

Structure (SMILES): CNC(=O)c1c(-c2ccc(O)cc2)oc2ccc(O)c(CN3CCC(C#N)CC3)c12 [compound 124]
- MIC [1, 4]: 20 µM (≈ 8.11 µg/mL)
- IC50 [2, 3]: 0.25 µM

Structure (SMILES): NC(=O)c1c(-c2ccc(O)cc2)oc2ccc(O)c(CN3CCCCC3)c12 [compound 125]
- MIC [1, 4]: 1.3 µM (≈ 0.476 µg/mL)
- IC50 [2, 3]: 0.17 µM

Structure (SMILES): CNC(=O)c1c(-c2ccc(O)cc2)oc2ccc(O)c(CN3CCCC(CO)C3)c12 (stereo not shown) [compound 127]
- MIC [1, 4]: 5 µM (≈ 2.05 µg/mL)
- IC50 [2, 3]: 1.1 µM

Structure (SMILES): CNC(=O)c1c(-c2ccc(O)cc2)oc2ccc(O)c(CNC3CCCC3)c12 [compound 128]
- MIC [1, 4]: 1 µM (≈ 0.38 µg/mL)
- IC50 [2, 3]: 1 µM

Structure (SMILES): CCOC(=O)c1c(-c2ccccc2)oc2ccc(O)c(CN3CCCC(CO)C3)c12 (stereo not shown) [compound 132]
- MIC [1, 5]: 10 µM (≈ 4.09 µg/mL)
- IC50 [2, 3]: 0.42 µM

Structure (SMILES): CCOC(=O)c1c(-c2ccc(O)cc2)oc2ccc(O)c(CN3CCCC(CO)C3)c12 (stereo not shown) [compound 134]
- MIC [1, 4]: 2.5 µM (≈ 1.06 µg/mL)
- IC50 [2, 3]: 0.4 µM

Structure (SMILES): CNC(=O)c1c(-c2ccccc2)oc2ccc(O)c(CN3CCCC(CO)C3)c12 (stereo not shown) [compound 135]
- MIC [1, 4]: 0.5 µM (≈ 0.197 µg/mL)
- IC50 [2, 3]: 2 µM

Structure (SMILES): CCOC(=O)c1c(-c2ccccc2)oc2cc(O)cc(CCN)c12 [compound 136]
- MIC [1, 5]: 4 µM (≈ 1.3 µg/mL)
- IC50 [2, 3]: > 20 µM

Structure (SMILES): CNC(=O)c1c(-c2ccccc2)oc2ccc(O)c(CCNC3CCCC3)c12 [compound 141]
- MIC [1, 5]: 10.0 µM (≈ 3.78 µg/mL)
- IC50 [2, 3]: 1.4 µM

Structure (SMILES): CCOC(=O)c1c(-c2ccccc2)oc2ccc(O)c(CCN3CCCC(O)C3)c12 (stereo not shown) [compound 151]
- MIC [1, 5]: >20 µM
- IC50 [2, 3]: 10 µM

Structure (SMILES): CCOC(=O)CCCC1CCN(CCCc2c(O)ccc3oc(-c4ccccc4)c(C(=O)OCC)c23)C1 (stereo not shown) [compound 161]
- MIC [1, 5]: 1.0 µM (≈ 0.508 µg/mL)
- IC50 [2, 3]: 0.8 µM

Structure (SMILES): CCOC(=O)c1c(-c2ccccc2)oc2ccc(O)c(CCCN3CCC(CCCO)C3)c12 (stereo not shown) [compound 162]
- MIC [1, 4]: 2.5 µM (≈ 1.13 µg/mL)
- IC50 [2, 3]: 2.7 µM

Structure (SMILES): CCOC(=O)c1c(-c2ccccc2)oc2ccc(O)c(CCCN3CCC3)c12 [compound 165]
- MIC [1, 4]: 0.08 µM (≈ 0.0304 µg/mL)
- IC50 [2, 3]: 0.8 µM

Structure (SMILES): CCOC(=O)c1c(-c2ccccc2)oc2ccc(O)c(CCCN3CCC(CO)CC3)c12 [compound 166]
- MIC [1, 4]: 6.1 µM (≈ 2.67 µg/mL)
- IC50 [2, 3]: 0.5 µM

Structure (SMILES): CCOC(=O)/C=C/CC1CCN(CCCc2c(O)ccc3oc(-c4ccccc4)c(C(=O)OCC)c23)C1 (stereo not shown) [compound 171]
- MIC [1, 4]: 2.7 µM (≈ 1.37 µg/mL)
- IC50 [2, 3]: 0.5 µM

Structure (SMILES): CCOC(=O)CCCC1CCN(CCCc2c(O)ccc3oc(-c4ccccc4)c(C(=O)OCC)c23)C1 (stereo not shown) [compound 172]
- MIC [1, 4]: 2.9 µM (≈ 1.47 µg/mL)
- IC50 [2, 3]: 0.7 µM

Structure (SMILES): CCOC(=O)c1c(-c2ccccc2)oc2ccc(O)c(CCCN3CCSC3C)c12 (stereo not shown) [compound 174]
- MIC [1, 4]: 4.7 µM (≈ 2 µg/mL)
- IC50 [2, 3]: 1.25 µM

Structure (SMILES): CCOC(=O)c1c(-c2ccccc2)oc2ccc(O)c(CCCN3CC[C@@H](O)C3)c12 [compound 175]
- MIC [1, 4]: 6.1 µM (≈ 2.5 µg/mL)
- IC50 [2, 3]: 0.95 µM

Structure (SMILES): CCOC(=O)c1c(-c2ccccc2)oc2ccc(O)c(CCCN3CC[C@H](O)C3)c12 [compound 186]
- MIC [1, 4]: 10 µM (≈ 4.09 µg/mL)
- IC50 [2, 3]: 0.62 µM

Structure (SMILES): CCOC(=O)c1c(-c2ccccc2)oc2ccc(O)c(CCCN3CC(F)C3)c12 [compound 199]
- MIC [1, 4]: 1.2 µM (≈ 0.477 µg/mL)
- IC50 [2, 3]: 2.5 µM

Structure (SMILES): CNC(=O)c1c(-c2ccccc2)oc2ccc(O)c(CCCN3CCC3)c12 [compound 200]
- MIC [1, 4]: 0.6 µM (≈ 0.219 µg/mL)
- IC50 [2, 3]: 4.4 µM

Structure (SMILES): CCOC(=O)c1c(-c2ccc(O)cc2)oc2ccc(O)c(CCCN3CCC3)c12 [compound 201]
- MIC [1, 4]: < 0.08 µM
- IC50 [2, 3]: 2.1 µM

Structure (SMILES): CNC(=O)c1c(-c2ccc(O)cc2)oc2ccc(O)c(CCCN3CCC3)c12 [compound 202]
- MIC [1, 4]: 15 µM (≈ 5.71 µg/mL)
- IC50 [2, 3]: 1.6 µM

Structure (SMILES): CC(C)NCCc1c(O)ccc2oc(-c3ccc(O)cc3)c(C(=O)N(C)C)c12 [compound 209]
- MIC [1, 5]: 0.45 µM (≈ 0.172 µg/mL)
- IC50 [2, 3]: 1.8 µM

Structure (SMILES): CCOC(=O)c1c(-c2ccccc2)oc2ccc(O)c(CCCN3CC[C@@H]3CO)c12 [compound 212]
- MIC [1, 4]: 1.1 µM (≈ 0.45 µg/mL)
- IC50 [2, 3]: 1.94 µM

Structure (SMILES): CCOC(=O)c1c(-c2ccccc2)oc2ccc(O)c(CCCN3CC[C@H]3CO)c12 [compound 213]
- MIC [1, 5]: 0.97 µM (≈ 0.397 µg/mL)
- IC50 [2, 3]: 2.3 µM

Structure (SMILES): CCOC(=O)c1c(-c2ccccc2)oc2ccc(O)c(CCN3CCC(C#N)CC3)c12 [compound 228]
- MIC [1, 4]: 5 µM (≈ 2.09 µg/mL)
- IC50 [2, 3]: 3.6 µM

Structure (SMILES): CCOC(=O)c1c(-c2ccccc2)oc2ccc(O)c(CCN3CCOCC3)c12 [compound 229]
- MIC [1, 4]: 3.2 µM (≈ 1.27 µg/mL)
- IC50 [2, 3]: 5.8 µM

Structure (SMILES): CNC(=O)c1c(-c2ccccc2)oc2ccc(O)c(CCN3CC[C@H](Br)C3)c12 [compound 231]
- MIC [1, 4]: 8 µM (≈ 3.55 µg/mL)
- IC50 [2, 3]: 5 µM

Structure (SMILES): CC[C@H](CO)NCCc1c(O)ccc2oc(-c3ccccc3)c(C(=O)NC)c12 [compound 234]
- MIC [1, 4]: > 20 µM
- IC50 [2, 3]: 5.3 µM

Structure (SMILES): CC[C@@H](CO)NCCc1c(O)ccc2oc(-c3ccccc3)c(C(=O)NC)c12 [compound 235]
- MIC [1, 4]: > 40 µM
- IC50 [2, 3]: 2.3 µM
